A short description of experiment [1]: ABTS radical scavenging assay. Conditions: 2 µg mL^−1. As for the experimental part:
(§1) The methods outlined by Blois and Re were used to assess the DPPH^ · and ABTS^+· free radical scavenging activities, respectively.^[ [58], [59] ^– [60] ^] A series of stock concentrations of synthesized thiazole‐based furan derivatives (2a‐2m) was prepared. For DPPH assay, a radical solution of 1 mM DPPH solution was prepared. Final concentrations were adjusted by diluting the sample stock solutions with ethanol to a total volume of 2 mL and then adding 0.5 mL of DPPH solution to each tube. The mixtures were incubated at room temperature and protected from light for 30 min. Absorbance was measured at 517 nm. In the ABTS test, 7 mM ABTS solution was prepared, and radical cations were formed by adding 2.45 mM persulfate. The absorbance of the control solution was adjusted to 0.700 ± 0.025 at 734 nm. For analysis, 0.5 mL of ABTS^+· radical solution was added to each sample. The absorbance at 734 nm was then measured against the blank solution following a 30 min incubation period.

The nature of experiment [2]: DPPH radical scavenging assay. Conditions: 2 µg mL^−1. How it is done: as §1
Experiment [3] has as its target T1, BChE (Equus caballus, UniProt P81908).
T1 construct: BChE (from horse serum); from tissue; host or cells: horse serum
Nature of the experiment: biochemical. The following applies: for Ki: Lineweaver–Burk plots; for IC50: substrate BChI, 37 °C.

For experiment [4], the target named is T2, AChE (Electrophorus electricus, UniProt O42275).
T2 construct: AChE (from electric eels); from tissue
T2 sequence (O42275 24-633): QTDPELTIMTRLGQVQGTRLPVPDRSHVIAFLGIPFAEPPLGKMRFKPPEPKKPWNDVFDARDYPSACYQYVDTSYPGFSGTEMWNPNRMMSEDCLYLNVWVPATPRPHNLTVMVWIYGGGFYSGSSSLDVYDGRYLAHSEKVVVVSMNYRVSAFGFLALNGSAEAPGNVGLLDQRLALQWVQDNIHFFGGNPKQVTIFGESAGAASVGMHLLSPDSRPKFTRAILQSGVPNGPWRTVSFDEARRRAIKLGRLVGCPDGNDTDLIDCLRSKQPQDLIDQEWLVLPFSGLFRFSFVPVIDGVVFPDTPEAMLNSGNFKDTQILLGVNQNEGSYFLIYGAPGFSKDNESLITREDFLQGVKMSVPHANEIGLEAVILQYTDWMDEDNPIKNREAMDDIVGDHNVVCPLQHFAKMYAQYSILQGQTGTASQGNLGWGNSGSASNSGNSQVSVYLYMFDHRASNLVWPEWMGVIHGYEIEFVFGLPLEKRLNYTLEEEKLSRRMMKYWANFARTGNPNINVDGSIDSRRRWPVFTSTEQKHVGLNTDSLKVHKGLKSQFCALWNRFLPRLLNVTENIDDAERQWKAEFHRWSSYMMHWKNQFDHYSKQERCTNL
The experiment can be described thus: biochemical. The following applies: for Ki: Lineweaver–Burk plots; for AChE/BChE SI (selectivity index): SI = KI (AChE)/KI (BChE); for IC50: substrate ATChI, 37 °C.
Description: Activity variations were tracked at 37 °C using acetylthiocholine iodide (ATChI) as a substrate for AChE (from electric eels) and butyrylcholine iodide (BChI) as a substrate for BChE (from horse serum).
Using at least five different inhibitor concentrations against the AChE and BChE enzymes, the inhibitory effects of thiazole‐based furan derivatives were assessed across a range of inhibitor doses. […] Furthermore, Lineweaver–Burk plots were used to assess inhibition types and inhibition constants (K I), providing thorough information on the kinetic behavior of these inhibitors.^[ [64] ^, [65] ^]

The structures appear in SMILES notation. Values joined by “and” are separate entries in the source; they are usually repeats but may differ in a detail not shown here. Identical values can stand only once.

T1 sequence (P81908 whole entry): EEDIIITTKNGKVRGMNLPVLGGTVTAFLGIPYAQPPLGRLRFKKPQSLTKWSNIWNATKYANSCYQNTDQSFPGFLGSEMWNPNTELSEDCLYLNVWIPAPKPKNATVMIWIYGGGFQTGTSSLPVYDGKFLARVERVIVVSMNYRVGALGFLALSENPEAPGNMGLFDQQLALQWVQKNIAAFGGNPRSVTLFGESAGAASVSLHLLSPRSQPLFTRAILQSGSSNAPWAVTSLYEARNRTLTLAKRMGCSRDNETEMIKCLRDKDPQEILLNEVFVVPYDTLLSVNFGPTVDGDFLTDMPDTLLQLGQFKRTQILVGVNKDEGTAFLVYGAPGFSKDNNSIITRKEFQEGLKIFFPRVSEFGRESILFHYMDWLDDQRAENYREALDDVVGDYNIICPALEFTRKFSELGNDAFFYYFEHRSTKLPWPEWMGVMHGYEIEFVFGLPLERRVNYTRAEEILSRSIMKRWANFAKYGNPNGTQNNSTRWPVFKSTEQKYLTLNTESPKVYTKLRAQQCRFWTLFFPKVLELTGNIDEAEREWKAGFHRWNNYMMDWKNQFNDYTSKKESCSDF

In the case of `Cc1c(C)c2c(c(C)c1O)CCC(C)(C(=O)O)O2` (stereo not drawn) [Trolox, reference compound], the “ABTS percent radical scavenging” value in experiment [1] came out at 29.211 ± 2.043%. In addition, the “DPPH percent radical scavenging” value in experiment [2] amounted to 13.863 ± 1.023%.
For `OCc1ccc(C=NNc2nc(-c3ccc(Cl)cc3)cs2)o1` [2k, 4‐(4‐Chlorophenyl)‐2‐(2‐((5‐hydroxymethylfuran‐2‐yl)methylene)hydrazineyl)thiazole], the “ABTS percent radical scavenging” value in experiment [1] is 11.842 ± 0.982%. Besides, in experiment [3], the Ki came out at 8.51 ± 0.684 µM and the IC50 was determined as 12.4 µM. In experiment [4], the Ki came out at 39.4 ± 3.25 µM, the “AChE/BChE SI (selectivity index)” value was 4.629 and 57.3 µM corresponded to half-maximal inhibition (IC50). In addition, the “DPPH percent radical scavenging” value in experiment [2] came out at 6.470 ± 0.574%.
Consider `O=[N+]([O-])c1cccc(-c2csc(NN=Cc3ccc(CO)o3)n2)c1` [2m, 4‐(3‐Nitrophenyl)‐2‐(2‐((5‐Hydroxymethylfuran‐2‐Yl)methylene)hydrazineyl)thiazole], for which, in experiment [1], the “ABTS percent radical scavenging” value is recorded as 30.789 ± 2.489%. In experiment [3], this compound displayed a Ki of 14.9 ± 1.35 µM and an IC50 of 21.7 µM. In experiment [4], the affinity corresponds to a Ki of 59.6 ± 4.82 µM, the “AChE/BChE SI (selectivity index)” value was determined as 4.001 and the IC50 turned out to be 86.6 µM. In addition, the “DPPH percent radical scavenging” value in experiment [2] was determined as 11.275 ± 1.021%.
As for `OCc1ccc(C=NNc2nc(-c3ccc(F)cc3)cs2)o1` [2d, 4‐(4‐Fluorophenyl)‐2‐(2‐((5‐Hydroxymethylfuran‐2‐Yl)methylene)hydrazineyl)thiazole], the “ABTS percent radical scavenging” value in experiment [1] was found to be 6.316 ± 0.584%. Further, in experiment [3], the Ki was determined as 7.44 ± 0.565 µM and the midpoint of inhibition, the IC50, lay at 10.8 µM. Also, in experiment [4], the Ki was 36.7 ± 3.22 µM, the “AChE/BChE SI (selectivity index)” value is 4.925 and the IC50 was 53.3 µM. The “DPPH percent radical scavenging” value in experiment [2] came out at 1.848 ± 0.095%.
For `OCc1ccc(C=NNc2nc(-c3ccc(Br)cc3)cs2)o1` [2f, 4‐(4‐Bromophenyl)‐2‐(2‐((5‐Hydroxymethylfuran‐2‐Yl)methylene)hydrazineyl)thiazole], the “ABTS percent radical scavenging” value in experiment [1] is on record as 22.107 ± 1.728%. In experiment [3], the affinity corresponds to a Ki of 4.76 ± 0.321 µM and the IC50 was found to be 6.93 µM. Moreover, in experiment [4], affinity was put at a Ki of 26.5 ± 1.81 µM, the “AChE/BChE SI (selectivity index)” value came to 5.557 and half-maximal inhibition (IC50) was put at 38.5 µM. In addition, the “DPPH percent radical scavenging” value in experiment [2] is given as 7.579 ± 0.648%.
Turning to `OCc1ccc(C=NNc2nc(-c3ccccc3)cs2)o1` [2j, 4‐Phenyl‐2‐(2‐((5‐hydroxymethylfuran‐2‐yl)methylene)hydrazineyl)thiazole], in experiment [1], the “ABTS percent radical scavenging” value stood at 28.158 ± 2.075%. Further, in experiment [3], the affinity corresponds to a Ki of 13.6 ± 1.05 µM and the IC50 came out at 19.7 µM. Besides, in experiment [4], the affinity corresponds to a Ki of 42.5 ± 3.49 µM, the “AChE/BChE SI (selectivity index)” value was found to be 3.134 and the IC50 turned out to be 61.9 µM. In experiment [2], the “DPPH percent radical scavenging” value turned out to be 9.057 ± 0.834%.
As to `N#Cc1ccc(-c2csc(NN=Cc3ccc(CO)o3)n2)cc1` [2c, 4‐(4‐Cyanophenyl)‐2‐(2‐((5‐Hydroxymethylfuran‐2‐Yl)methylene)hydrazineyl)thiazole], the “ABTS percent radical scavenging” value in experiment [1] is listed as 15.789 ± 1.365%. Also, in experiment [3], the affinity corresponds to a Ki of 9.53 ± 0.824 µM and the IC50 was found to be 13.9 µM. Moreover, in experiment [4], the affinity, expressed as Ki, was 31.8 ± 2.86 µM; the “AChE/BChE SI (selectivity index)” value worked out at 3.334; the midpoint of inhibition, the IC50, lay at 46.2 µM. The “DPPH percent radical scavenging” value in experiment [2] was 3.512 ± 0.237%.
Regarding `OCc1ccc(C=NNc2nc(-c3ccc(Cl)cc3Cl)cs2)o1` [2l, 4‐(2,4‐Dichlorophenyl)‐2‐(2‐((5‐Hydroxymethylfuran‐2‐Yl)methylene)hydrazineyl) Thiazole], in experiment [1], the “ABTS percent radical scavenging” value is 21.053 ± 1.793%. Besides, in experiment [3], the affinity, expressed as Ki, was 5.74 ± 0.384 µM and 8.35 µM corresponded to half-maximal inhibition (IC50). Further, in experiment [4], affinity was put at a Ki of 42.1 ± 3.79 µM, the “AChE/BChE SI (selectivity index)” value is on record as 7.345 and half-maximal inhibition (IC50) required 61.3 µM. Also, in experiment [2], the “DPPH percent radical scavenging” value was found to be 4.436 ± 0.386%.
With `O=[N+]([O-])c1ccc(-c2csc(NN=Cc3ccc(CO)o3)n2)cc1` [2a, 4‐(4‐Nitrophenyl)‐2‐(2‐((5‐hydroxymethylfuran‐2‐yl)methylene)hydrazineyl)thiazole], the “ABTS percent radical scavenging” value in experiment [1] is 56.842% and 56.842 ± 4.346%. In experiment [3], this compound showed a Ki of 6.03 ± 0.523 µM and an IC50 of 8.77 µM. Further, in experiment [4], the Ki amounted to 14.9 ± 1.05 µM, the “AChE/BChE SI (selectivity index)” value is given as 2.469 and the IC50 was found to be 21.7 µM. In experiment [2], the “DPPH percent radical scavenging” value was 12.202% and 12.202 ± 0.965%.
As for `OCc1ccc(C=NNc2nc(-c3ccc(F)cc3F)cs2)o1` [2i, 4‐(2,4‐Difluorophenyl)‐2‐(2‐((5‐Hydroxymethylfuran‐2‐Yl)methylene)hydrazineyl) Thiazole], in experiment [1], the “ABTS percent radical scavenging” value was 31.842% and 31.842 ± 2.785%. In addition, in experiment [3], affinity was put at a Ki of 6.52 ± 0.428 µM and the IC50 was determined as 9.49 µM. In experiment [4], the affinity, expressed as Ki, was 43.4 ± 3.56 µM; the “AChE/BChE SI (selectivity index)” value stood at 6.650; inhibition was half-maximal at 63.1 µM (IC50). The “DPPH percent radical scavenging” value in experiment [2] is 13.309% and 13.309 ± 1.278%.
As for `Cc1ccc(-c2csc(NN=Cc3ccc(CO)o3)n2)cc1` [2g, 4‐(4‐Methylphenyl)‐2‐(2‐((5‐Hydroxymethylfuran‐2‐Yl)methylene)hydrazineyl)thiazole], the “ABTS percent radical scavenging” value in experiment [1] is 11.053 ± 1.012%. In experiment [3], the affinity, expressed as Ki, was 12.9 ± 1.21 µM and inhibition was half-maximal at 18.7 µM (IC50). In experiment [4], the Ki turned out to be 36.7 ± 2.56 µM, the “AChE/BChE SI (selectivity index)” value amounted to 2.847 and the IC50 was found to be 53.3 µM. Further, the “DPPH percent radical scavenging” value in experiment [2] is given as 4.067 ± 0.289%.
Consider `OCc1ccc(C=NNc2nc(-c3ccc(Cl)c(Cl)c3)cs2)o1` [2h, 4‐(3,4‐Dichlorophenyl)‐2‐(2‐((5‐Hydroxymethylfuran‐2‐Yl)methylene)hydrazineyl) Thiazole], for which the “ABTS percent radical scavenging” value in experiment [1] turned out to be 12.106 ± 1.036%. In experiment [3], this compound gave a Ki of 8.21 ± 0.722 µM and an IC50 of 11.9 µM. In addition, in experiment [4], affinity was put at a Ki of 26.7 ± 2.04 µM, the “AChE/BChE SI (selectivity index)” value was 3.257 and the IC50 came out at 38.9 µM. The “DPPH percent radical scavenging” value in experiment [2] was found to be 5.361 ± 0.486%.
Take `OCc1ccc(C=NNc2nc(-c3ccc(-c4ccccc4)cc3)cs2)o1` [2e, 4‐([1,1^′‐Biphenyl]‐4‐Yl)‐2‐(2‐((5‐Hydroxymethylfuran‐2‐Yl)methylene)hydrazineyl) Thiazole]: the “ABTS percent radical scavenging” value in experiment [1] was found to be 17.105 ± 1.248%. Also, in experiment [3], the Ki is 6.44 ± 0.452 µM and the IC50 was found to be 9.36 µM. Besides, in experiment [4], the Ki was found to be 34 ± 2.1 µM, the “AChE/BChE SI (selectivity index)” value is given as 5.287 and it took 49.5 µM to reach half-maximal inhibition (IC50). Moreover, in experiment [2], the “DPPH percent radical scavenging” value worked out at 4.621 ± 0.372%.
On to `COc1ccc(-c2csc(NN=Cc3ccc(CO)o3)n2)cc1` [2b, 4‐(4‐Methoxyphenyl)‐2‐(2‐((5‐Hydroxymethylfuran‐2‐Yl)methylene)hydrazineyl)thiazole], for which the “ABTS percent radical scavenging” value in experiment [1] is given as 2.105 ± 0.176%. In experiment [3], this compound showed a Ki of 23.82 ± 0.132 µM and an IC50 of 34.7 µM. For the same compound, in experiment [4], the affinity corresponds to a Ki of 14.5 ± 1.12 µM; the “AChE/BChE SI (selectivity index)” value is listed as 0.609; the midpoint of inhibition, the IC50, lay at 21.1 µM. Also, in experiment [2], the “DPPH percent radical scavenging” value amounted to 1.109 ± 0.762%.

What is called Ki is the equilibrium dissociation constant of an inhibitor or competing ligand from its target. A low value points to a stronger hold on the target. The IC50 is the concentration that inhibits the measured activity by half.

The record behind these values is PMC12680558, “Design, Synthesis, In Silico Absorption, Distribution, Metabolism, and Elimination and Molecular Docking Studies of Thiazole‐Based Furan Derivatives, and Their Biological Evaluation for Alzheimer Disease Therapy” (ChemistryOpen, 2025).
